According to paper PMC10610198, “Inhibitory Activity of Natural cis-Khellactone on Soluble Epoxide Hydrolase and Proinflammatory Cytokine Production in Lipopolysaccharides-Stimulated RAW264.7 Cells” (Plants, 2023):

Target: T1, soluble epoxide hydrolase (sEH) (Homo sapiens, UniProt P34913)
T1 construct: gene EPHX2
T1 sequence (P34913 1-555): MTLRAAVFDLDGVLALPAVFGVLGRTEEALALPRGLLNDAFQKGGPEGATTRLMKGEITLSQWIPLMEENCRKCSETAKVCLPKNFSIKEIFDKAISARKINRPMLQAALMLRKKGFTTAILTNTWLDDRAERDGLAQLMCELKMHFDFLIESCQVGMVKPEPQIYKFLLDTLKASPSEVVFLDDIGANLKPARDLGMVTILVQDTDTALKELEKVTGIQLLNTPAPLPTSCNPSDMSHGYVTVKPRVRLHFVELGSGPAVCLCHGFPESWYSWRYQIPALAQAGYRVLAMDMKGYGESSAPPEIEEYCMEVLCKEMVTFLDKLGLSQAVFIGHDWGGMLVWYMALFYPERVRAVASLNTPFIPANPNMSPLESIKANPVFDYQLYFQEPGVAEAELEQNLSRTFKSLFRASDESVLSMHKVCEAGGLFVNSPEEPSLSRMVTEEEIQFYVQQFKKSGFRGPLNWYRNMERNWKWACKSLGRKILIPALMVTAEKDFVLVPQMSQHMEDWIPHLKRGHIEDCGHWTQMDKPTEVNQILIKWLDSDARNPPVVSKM
Assay: fluorescent PHOME hydrolysis assay with recombinant sEH; Lineweaver–Burk and Dixon plots
Type: biochemical

CC1(C)Oc2ccc3ccc(=O)oc3c2[C@H](O)[C@@H]1O [compound 1, (−)cis-Khellactone]
Ki: 3.5 µM
